In patent publication US12059413B2, “Methods of inhibiting viruses using compositions targeting TSG101-ubiquitin interaction” (The Research Foundation for the State University of New York, priority 2016, dated 2024):

Legend:
[1] = target: T1, Tsg101 UEV domain (Homo sapiens, UniProt Q99816); assay: NMR / LC-MS binding of compound to Tsg101 UEV domain
T1 construct: Tsg101 UEV domain (residues 2-145) was encoded in a pET-28b vector; His6-TEV site (N, cleaved yes); made in house; host or cells: E. coli Rosetta 2 (DE3) pLysS
T1 sequence (Q99816 2-145): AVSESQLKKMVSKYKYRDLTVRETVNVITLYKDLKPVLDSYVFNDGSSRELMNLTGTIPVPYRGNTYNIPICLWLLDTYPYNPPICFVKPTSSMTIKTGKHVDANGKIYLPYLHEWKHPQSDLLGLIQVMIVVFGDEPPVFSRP
Method: N16 (20 mM solution, DMSO) was added to Tsg101 UEV domain in a 10:1 ratio (N16 excess).
For binding studies using NMR spectroscopy, the following complexes were made: Tsg101 UEV-N16, UEV-PTAP, UEV-Ub, UEV-N16-PTAP, and UEV-N16-Ub, all in Tsg101 NMR buffer: 20 mM potassium phosphate, 50 mM NaCl, pH 5.8, with UEV concentration of 200 μM.

[2] = Conversion of prazoles to sulfenamide / half-life; format: physicochemical
Text: To measure sulfenamide formation: Dissolve each compound in water/buffer and measure the formation of colored compounds by UV-visible absorption, since the initial compound is colorless and the final compound (the sulfenamide dimer) is colored.

[3] = target: T2, Tsg101 (Homo sapiens, UniProt Q99816); assay: NWU screening / in vitro binding assay
T2 sequence (Q99816 2-145 limits assumed): T1 sequence (Q99816 2-145)
Text: Pantoprazole, Lansoprazole/Dexlansoprazole (dexlansoprazole is the active enantiomer of the racemic lansoprazole), and Rabeprazole were in the NWU screen but were not considered hits.

[4] = system: 293T cells; assay: Metabolic activity, WST-1 assay, 293T cells; format: cell-based; conditions: metabolic measurements, WST-1 reagent
Method: FIG. 20A-C. N16 inhibition is virus-specific. A) N16 IC50 for Hela and 293T cells. […] Values were calculated by measuring metabolic activity (WST-1 Assay, Roche Applied Science) after cells were grown for 24 hr in N16. Data points represent the mean of 2 assays, 3 time points each for each cell line. […] Values in the absence or presence of N16 (50 uM) were 12% and 13%, respectively). C) N16 effect on EGF-stimulated EFGR degradation. Cells maintained for 24 hr in media containing DMSO alone or DMSO and N16 were stimulated with EGF ligand for a 90 min period and then assessed for EGFR steady-state level by Western analysis. EGFR levels for unstimulated and stimulated sample pairs are shown. A) n=2; B) n=2; C) n=2.
FIG. 27A-C. Effect of N-Acetyl Cysteine (NAC) on N16-mediated inhibition of VLP production and intracellular Gag accumulation. […] A concentration of 3 mM NAC was therefore used to test the effect of the antioxidative reagent on the N16 inhibitory effect. N16 (0, 12, 25, 50, 75, and 100 uM) was added 8.5 hr prior to transfection with pNL4-3ΔEnv. Cells were harvested 16 hr later. […] C) Quantitative analysis. n=2.
Cells were grown in 96-well trays for 24 hr with increasing levels of drug, metabolic activity was measured using WST-1colorimetric assay (Roche), and IC50 values were calculated (Prism 6, Graph Pad Software Inc.).

[5] = target: proteasome (Homo sapiens, UniProt P20618+P28074); conditions: Gelman et al.; cited from earlier work

Cc1c(OCC(F)(F)F)ccnc1C[S+]([O-])c1nc2ccccc2[nH]1 (racemic) [Lansoprazole]
residue bound in Tsg101 UEV (NMR and fluorescence perturbances) [1]: bind to residue C73 | slowness of sulfenamide conversion relative to Rabeprazole [2]: ~2 × | binding in the NWU screening assay [3]: bound weakly

CC(=O)N[C@@H](CS)C(=O)O [NAC, N-Acetyl Cysteine]
concentration up to which 293T cells were robust [4]: at least 4 mM

CC(C)C[C@H](NC(=O)[C@H](Cc1ccccc1)NC(=O)c1cnccn1)B(O)O [bortezomib]
concentration giving proteasome inhibition, previous studies [5]: ≥ 5 nM
